# Laboratory results as given in ChEMBL document CHEMBL3352542, “Synthesis, biological evaluation and molecular modeling study of 2-(1,3,4-thiadiazolyl-thio and 4-methyl-thiazolyl-thio)-quinazolin-4-ones as a new class of DHFR inhibitors” (Bioorg Med Chem Lett, 2014).
# Active and inactive are the calls of the source. The rule behind the calls is not given here.
# Key:
# Dihydrofolate reductase = molecular target: T1, Dihydrofolate reductase (Bos taurus, UniProt P00376); experiment: Inhibition of bovine liver DHFR
# T1 sequence (P00376 whole entry): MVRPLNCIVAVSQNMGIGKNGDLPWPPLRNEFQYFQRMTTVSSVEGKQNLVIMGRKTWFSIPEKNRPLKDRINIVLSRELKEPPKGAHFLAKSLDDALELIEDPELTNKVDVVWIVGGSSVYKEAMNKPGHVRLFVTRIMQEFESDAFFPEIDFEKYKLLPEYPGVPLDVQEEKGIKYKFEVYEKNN
# Staphylococcus aureus [1] = experiment: Antimicrobial activity against Staphylococcus aureus assessed as inhibition zone at 200 ug/disk after 24 hrs by disc-diffusion method; type: functional; conditions: read-out: IZ
# Bacillus subtilis [2] = experiment: Antimicrobial activity against Bacillus subtilis assessed as inhibition zone at 200 ug/disk after 24 hrs by disc-diffusion method; type: functional; conditions: read-out: IZ
# Escherichia coli [3] = experiment: Antimicrobial activity against Escherichia coli assessed as inhibition zone at 200 ug/disk after 24 hrs by disc-diffusion method; type: functional; conditions: read-out: IZ
# Pseudomonas aeruginosa [4] = experiment: Antimicrobial activity against Pseudomonas aeruginosa assessed as inhibition zone at 200 ug/disk after 24 hrs by disc-diffusion method; type: functional; conditions: read-out: IZ
# Candida albicans [5] = experiment: Antimicrobial activity against Candida albicans assessed as inhibition zone at 200 ug/disk after 24 hrs by disc-diffusion method; type: functional; conditions: read-out: IZ
# CCRF-CEM = experiment: Growth inhibition of human CCRF-CEM cells at 10 uM after 48 hrs; type: functional; conditions: read-out: GI
# HL-60(TB) = experiment: Growth inhibition of human HL-60(TB) cells at 10 uM after 48 hrs; type: functional; conditions: HL-60, 48 h, read-out: GI
# K562 = experiment: Growth inhibition of human K562 cells at 10 uM after 48 hrs; type: functional; conditions: K562, 48 h, read-out: GI
# [6] = Growth inhibition of human MOLT4 cells at 10 uM after 48 hrs; type: functional; conditions: MOLT-4, 48 h, read-out: GI
# [7] = Growth inhibition of human RPMI8226 cells at 10 uM after 48 hrs; type: functional; conditions: RPMI-8226, 48 h, read-out: GI
# A549 = experiment: Growth inhibition of human A549 cells at 10 uM after 48 hrs; type: functional; conditions: A549, 48 h, read-out: GI
# [8] = Growth inhibition of human HOP92 cells at 10 uM after 48 hrs; type: functional; conditions: HOP-92, 48 h, read-out: GI
# NCI-H226 = experiment: Growth inhibition of human NCI-H226 cells at 10 uM after 48 hrs; type: functional; conditions: NCI-H226, 48 h, read-out: GI
# NCI-H23 = experiment: Growth inhibition of human NCI-H23 cells at 10 uM after 48 hrs; type: functional; conditions: NCI-H23, 48 h, read-out: GI
# NCI-H460 = experiment: Growth inhibition of human NCI-H460 cells at 10 uM after 48 hrs; type: functional; conditions: NCI-H460, 48 h, read-out: GI
# NCI-H522 = experiment: Growth inhibition of human NCI-H522 cells at 10 uM after 48 hrs; type: functional; conditions: NCI-H522, 48 h, read-out: GI
# [9] = Growth inhibition of human HCC2998 cells at 10 uM after 48 hrs; type: functional; conditions: HCC 2998, 48 h, read-out: GI
# [10] = Growth inhibition of human HCT116 cells at 10 uM after 48 hrs; type: functional; conditions: HCT-116, 48 h, read-out: GI
# [11] = Growth inhibition of human HCT15 cells at 10 uM after 48 hrs; type: functional; conditions: HCT-15, 48 h, read-out: GI
# HT-29 = experiment: Growth inhibition of human HT-29 cells at 10 uM after 48 hrs; type: functional; conditions: HT-29, 48 h, read-out: GI
# KM12 = experiment: Growth inhibition of human KM12 cells at 10 uM after 48 hrs; type: functional; conditions: KM12, 48 h, read-out: GI
# SW-620 = experiment: Growth inhibition of human SW620 cells at 10 uM after 48 hrs; type: functional; conditions: SW-620, 48 h, read-out: GI
# [12] = Growth inhibition of human SF295 cells at 10 uM after 48 hrs; type: functional; conditions: SF-295, 48 h, read-out: GI
# SNB-19 = experiment: Growth inhibition of human SNB19 cells at 10 uM after 48 hrs; type: functional; conditions: SNB-19, 48 h, read-out: GI
# U-251 = experiment: Growth inhibition of human U251 cells at 10 uM after 48 hrs; type: functional; conditions: U-251, 48 h, read-out: GI
# [13] = Growth inhibition of human LOXIMVI cells at 10 uM after 48 hrs; type: functional; conditions: LOX IMVI, read-out: GI
# M14 = experiment: Growth inhibition of human M14 cells at 10 uM after 48 hrs; type: functional; conditions: M14, 48 h, read-out: GI
# MDA-MB-435 = experiment: Growth inhibition of human MDA-MB-435 cells at 10 uM after 48 hrs; type: functional; conditions: MDA-MB-435, 48 h, read-out: GI
# SK-MEL-5 = experiment: Growth inhibition of human SK-MEL-5 cells at 10 uM after 48 hrs; type: functional; conditions: SK-MEL-5, 48 h, read-out: GI
# [14] = Growth inhibition of human UACC257 cells at 10 uM after 48 hrs; type: functional; conditions: UACC-257, 48 h, read-out: GI
# [15] = Growth inhibition of human UACC62 cells at 10 uM after 48 hrs; type: functional; conditions: UACC-62, 48 h, read-out: GI
# [16] = Growth inhibition of human OVCAR4 cells at 10 uM after 48 hrs; type: functional; conditions: OVCAR-4, 48 h, read-out: GI
# [17] = Growth inhibition of human OVCAR5 cells at 10 uM after 48 hrs; type: functional; conditions: OVCAR-5, 48 h, read-out: GI
# [18] = Growth inhibition of human OVCAR8 cells at 10 uM after 48 hrs; type: functional; conditions: OVCAR-8, 48 h, read-out: GI
# [19] = Growth inhibition of human NCI-ADR-RES cells at 10 uM after 48 hrs; type: functional; conditions: read-out: GI
# 786-0 = experiment: Growth inhibition of human 786-0 cells at 10 uM after 48 hrs; type: functional; conditions: 786-0, 48 h, read-out: GI
# A498 = experiment: Growth inhibition of human A498 cells at 10 uM after 48 hrs; type: functional; conditions: A498, 48 h, read-out: GI
# ACHN = experiment: Growth inhibition of human ACHN cells at 10 uM after 48 hrs; type: functional; conditions: read-out: GI
# CAKI-1 = experiment: Growth inhibition of human CAKI-1 cells at 10 uM after 48 hrs; type: functional; conditions: CAKI-1, 48 h, read-out: GI
# [20] = Growth inhibition of human RXF393 cells at 10 uM after 48 hrs; type: functional; conditions: RXF 393, 48 h, read-out: GI
# SN12C = experiment: Growth inhibition of human SN12C cells at 10 uM after 48 hrs; type: functional; conditions: read-out: GI
# TK-10 = experiment: Growth inhibition of human TK10 cells at 10 uM after 48 hrs; type: functional; conditions: TK-10, 48 h, read-out: GI
# [21] = Growth inhibition of human UO31 cells at 10 uM after 48 hrs; type: functional; conditions: UO-31, 48 h, read-out: GI
# [22] = Growth inhibition of human PC3 cells at 10 uM after 48 hrs; type: functional; conditions: PC-3, 48 h, read-out: GI
# MCF7 = experiment: Growth inhibition of human MCF7 cells at 10 uM after 48 hrs; type: functional; conditions: MCF7, 48 h, read-out: GI
# MDA-MB-231 = experiment: Growth inhibition of human MDA-MB-231 cells at 10 uM after 48 hrs; type: functional; conditions: MDA-MB-231, 48 h, read-out: GI
# [23] = Growth inhibition of human Hs 578T cells at 10 uM after 48 hrs; type: functional; conditions: read-out: GI
# [24] = Growth inhibition of human BT549 cells at 10 uM after 48 hrs; type: functional; conditions: BT-549, 48 h, read-out: GI
# T47D = experiment: Growth inhibition of human T47D cells at 10 uM after 48 hrs; type: functional; conditions: read-out: GI
# MDA-MB-468 = experiment: Growth inhibition of human MDA-MB-468 cells at 10 uM after 48 hrs; type: functional; conditions: MDA-MB-468, 48 h, read-out: GI
# Staphylococcus aureus [25] = experiment: Antimicrobial activity against Staphylococcus aureus assessed as inhibition of visible growth after 24 hrs by disc-diffusion method; type: functional, organism-based
# Bacillus subtilis [26] = experiment: Antimicrobial activity against Bacillus subtilis assessed as inhibition of visible growth after 24 hrs by disc-diffusion method; type: functional, organism-based
# Escherichia coli [27] = experiment: Antimicrobial activity against Escherichia coli assessed as inhibition of visible growth after 24 hrs by disc-diffusion method; type: functional, organism-based
# Pseudomonas aeruginosa [28] = experiment: Antimicrobial activity against Pseudomonas aeruginosa assessed as inhibition of visible growth after 24 hrs by disc-diffusion method; type: functional, organism-based
# Candida albicans [29] = experiment: Antimicrobial activity against Candida albicans assessed as inhibition of visible growth after 24 hrs by disc-diffusion method; type: functional, organism-based
compound,measurement,setting,value
Cc1nc(N)sc1Sc1nc2ccc(Cl)cc2c(=O)n1-c1ccc(Oc2ccccc2)cc1,IC50,Dihydrofolate reductase,1000 nM
same,zone of inhibition at 200 µg/disc,Staphylococcus aureus [1],8 mm
same,zone of inhibition at 200 µg/disc,Bacillus subtilis [2],8 mm
same,zone of inhibition at 200 µg/disc,Escherichia coli [3],8 mm
same,zone of inhibition at 200 µg/disc,Pseudomonas aeruginosa [4],8 mm
same,zone of inhibition at 200 µg/disc,Candida albicans [5],8 mm
same,inhibition of growth at 10 µM,CCRF-CEM,58.5%
same,inhibition of growth at 10 µM,HL-60(TB),40.6%
same,inhibition of growth at 10 µM,K562,25.7%
same,inhibition of growth at 10 µM,[6],55.7%
same,inhibition of growth at 10 µM,[7],32%
same,inhibition of growth at 10 µM,A549,29.8%
same,inhibition of growth at 10 µM,[8],25.6%
same,inhibition of growth at 10 µM,NCI-H226,13.6%
same,inhibition of growth at 10 µM,NCI-H23,26%
same,inhibition of growth at 10 µM,NCI-H460,18%
same,inhibition of growth at 10 µM,NCI-H522,14.7%
same,inhibition of growth at 10 µM,[9],26%
same,inhibition of growth at 10 µM,[10],66.7%
same,inhibition of growth at 10 µM,[11],44.6%
same,inhibition of growth at 10 µM,HT-29,44.1%
same,inhibition of growth at 10 µM,KM12,20.2%
same,inhibition of growth at 10 µM,SW-620,33.9%
same,inhibition of growth at 10 µM,[12],32.2%
same,inhibition of growth at 10 µM,SNB-19,30.7%
same,inhibition of growth at 10 µM,U-251,22.8%
same,inhibition of growth at 10 µM,[13],24.5%
same,inhibition of growth at 10 µM,M14,23.4%
same,inhibition of growth at 10 µM,MDA-MB-435,11.9%
same,inhibition of growth at 10 µM,SK-MEL-5,23.9%
same,inhibition of growth at 10 µM,[14],24.3%
same,inhibition of growth at 10 µM,[15],36.1%
same,inhibition of growth at 10 µM,[16],59.1%
same,inhibition of growth at 10 µM,[17],12.1%
same,inhibition of growth at 10 µM,[18],24.9%
same,inhibition of growth at 10 µM,[19],30.1%
same,inhibition of growth at 10 µM,786-0,31.5%
same,inhibition of growth at 10 µM,A498,60.2%
same,inhibition of growth at 10 µM,ACHN,21.5%
same,inhibition of growth at 10 µM,CAKI-1,26.5%
same,inhibition of growth at 10 µM,[20],13.4%
same,inhibition of growth at 10 µM,SN12C,26.1%
same,inhibition of growth at 10 µM,TK-10,11.1%
same,inhibition of growth at 10 µM,[21],38.3%
same,inhibition of growth at 10 µM,[22],51.1%
same,inhibition of growth at 10 µM,MCF7,12.6%
same,inhibition of growth at 10 µM,MDA-MB-231,10.7%
same,inhibition of growth at 10 µM,[23],18.1%
same,inhibition of growth at 10 µM,[24],36.8%
same,inhibition of growth at 10 µM,T47D,24.5%
same,inhibition of growth at 10 µM,MDA-MB-468,23.4%
CC(=O)NS(=O)(=O)c1ccc(N)cc1 [SULFACETAMIDE],zone of inhibition at 200 µg/disc,Staphylococcus aureus [1],20 mm
same,zone of inhibition at 200 µg/disc,Bacillus subtilis [2],22 mm
same,zone of inhibition at 200 µg/disc,Escherichia coli [3],18 mm
same,zone of inhibition at 200 µg/disc,Pseudomonas aeruginosa [4],28 mm
same,zone of inhibition at 200 µg/disc,Candida albicans [5],25 mm
same,Activity,Staphylococcus aureus [25],Active
same,Activity,Bacillus subtilis [26],Active
same,Activity,Escherichia coli [27],Active
same,Activity,Pseudomonas aeruginosa [28],Active
same,Activity,Candida albicans [29],Active
